The values below come from US20260257998A1, “ERR MODULATORS” (University of Health Sciences and Pharmacy in St. Louis, priority 2023, published 2026).

One assay has as its target T1, ERRα (Homo sapiens, UniProt P11474).
T1 construct: expressed in transfected cells; host or cells: HEK293
T1 sequence (P11474 1-423): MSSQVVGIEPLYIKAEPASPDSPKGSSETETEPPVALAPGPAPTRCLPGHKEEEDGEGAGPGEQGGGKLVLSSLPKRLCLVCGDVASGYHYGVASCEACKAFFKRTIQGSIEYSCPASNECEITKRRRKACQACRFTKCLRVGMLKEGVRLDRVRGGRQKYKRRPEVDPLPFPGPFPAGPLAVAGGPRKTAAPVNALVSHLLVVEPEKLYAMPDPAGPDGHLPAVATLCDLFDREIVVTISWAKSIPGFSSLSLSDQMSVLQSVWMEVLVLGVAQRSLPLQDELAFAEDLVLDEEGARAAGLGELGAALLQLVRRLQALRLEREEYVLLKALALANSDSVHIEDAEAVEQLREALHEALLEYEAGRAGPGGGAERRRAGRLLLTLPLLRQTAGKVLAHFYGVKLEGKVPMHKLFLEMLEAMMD
Put plainly: ERRE luciferase reporter assay in HEK293 cells transfected with pcDNA3.1 ERRα. The assay is classed as cell-based. Further details: key to EC50 (ERRα): ***<1 μM; **1-5 μM; *>5 μM; i.a. (inactive). The note with it: 24 hours treatment, luciferase activity. As for the experimental part: (§1) HEK293 cells were maintained in Dulbecco's modified Eagles medium (DMEM) supplemented with 10% fetal bovine serum at 37° C. under 5% CO2. […] Cells were transfected with ERRE reporter construct and pcDNA3.1 ERRα or ERRγ. Twenty-four-hours post-transfection, the cells were treated with vehicle or compound (various concentrations) for 24 hours (4 wells per dose). Luciferase activity was measured using the One-Glo Tox luciferase reporter assay system (Promega) and […] were calculated using GraphPad Prism software.
A general note: A reporter such as luciferase makes a cellular process visible.

A further assay deals with T2, ERRγ (Homo sapiens, UniProt P62508).
T2 construct: expressed in transfected cells; host or cells: HEK293
T2 sequence (P62508 1-458): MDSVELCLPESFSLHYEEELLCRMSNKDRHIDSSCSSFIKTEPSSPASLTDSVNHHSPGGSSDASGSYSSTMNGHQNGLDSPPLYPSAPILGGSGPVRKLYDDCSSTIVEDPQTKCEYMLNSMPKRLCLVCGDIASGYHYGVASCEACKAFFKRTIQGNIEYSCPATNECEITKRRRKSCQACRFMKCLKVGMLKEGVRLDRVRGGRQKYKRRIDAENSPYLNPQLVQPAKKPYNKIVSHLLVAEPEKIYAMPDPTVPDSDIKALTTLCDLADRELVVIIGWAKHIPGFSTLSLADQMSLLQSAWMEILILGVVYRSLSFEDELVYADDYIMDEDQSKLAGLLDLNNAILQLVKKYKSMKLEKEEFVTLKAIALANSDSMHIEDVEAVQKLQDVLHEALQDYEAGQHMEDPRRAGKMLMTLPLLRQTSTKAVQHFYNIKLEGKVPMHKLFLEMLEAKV
Put plainly: ERRE luciferase reporter assay in HEK293 cells transfected with pcDNA3.1 ERRγ. The assay is classed as cell-based. Set-up: key to EC50 (ERRγ): ***<1 μM; **1-5 μM; *>5 μM; i.a. (inactive). The note with it: 24 hours treatment, luciferase activity. As for the experimental part:
as §1

For orientation: EC50 means the concentration at which the effect is half-maximal.

Some results are limits rather than exact numbers.

For the molecule `Oc1cccc(C2CC(c3cccc(F)c3)=NN2)c1` (centres unmarked) [Entry 78, 3-(3-(3-fluorophenyl)-4,5-dihydro-1H-pyrazol-5-yl)phenol], the EC50 on ERRα was in the range of 1 to 5 µM. Besides, at ERRγ, the “EC50 (ERRγ)” value is on record as “i.a”.
`Oc1cccc(C2CC(c3ccc(Br)cc3)=NN2)c1` (centres unmarked) [Entry 79, 3-(3-(4-bromophenyl)-4,5-dihydro-1H-pyrazol-5-yl)phenol]: the EC50 on ERRα and at ERRγ was 1 to 5 µM in each case.
In the case of `Oc1ccc(C2CC(c3ccc(Br)cc3)=NN2)cc1` (centres unmarked) [Entry 80, 4-(3-(4-bromophenyl)-4,5-dihydro-1H-pyrazol-5-yl)phenol], the EC50 on ERRα was under 1 µM; on ERRγ, 1 to 5 µM.
`Brc1ccc(C2=NNC(c3ccc4ccccc4c3)C2)cc1` (centres unmarked) [Entry 81, 3-(4-bromophenyl)-5-(naphthalen-2-yl)-4,5-dihydro-1H-pyrazole]: at ERRα, the “EC50 (ERRα)” value is listed as “i.a”. In addition, the “EC50 (ERRγ)” value on ERRγ is listed as “i.a”.
Take `Oc1ccc(C2CC(c3cccc(C(F)(F)F)c3)=NN2)cc1` (centres unmarked) [Entry 82, 4-(3-(3-(trifluoromethyl)phenyl)-4,5-dihydro-1H-pyrazol-5-yl)phenol]: the “EC50 (ERRα)” value at ERRα was “i.a”. Besides, the “EC50 (ERRγ)” value at ERRγ was “i.a”.
Take `FC(F)(F)c1cccc(C2=NNC(c3ccc4ccccc4c3)C2)c1` (centres unmarked) [Entry 83, 5-(naphthalen-2-yl)-3-(3-(trifluoromethyl)phenyl)-4,5-dihydro-1H-pyrazole]: the “EC50 (ERRα)” value on ERRα is reported as “i.a”. For the same molecule, the “EC50 (ERRγ)” value on ERRγ was “i.a”.
In the case of `Oc1ccc(C2CC(c3cccc(Br)c3)=NN2)cc1` (centres unmarked) [Entry 84, 4-(3-(3-bromophenyl)-4,5-dihydro-1H-pyrazol-5-yl)phenol], the EC50 on ERRα and on ERRγ was over 5 µM throughout.
Take `Oc1ccc(C2CC(c3ccc(F)cc3)=NN2)cc1` (centres unmarked) [Entry 85, 4-(3-(4-fluorophenyl)-4,5-dihydro-1H-pyrazol-5-yl)phenol]: the concentration for a half-maximal effect (EC50) on ERRα and on ERRγ was over 5 µM throughout.
As for `Brc1cccc(C2=NNC(c3ccc4ccccc4c3)C2)c1` (centres unmarked) [Entry 86, 3-(3-bromophenyl)-5-(naphthalen-2-yl)-4,5-dihydro-1H-pyrazole], the EC50 on ERRα and at ERRγ was over 5 µM each time.
In the case of `Oc1cccc(C2CC(c3ccc(F)cc3)=NN2)c1` (centres unmarked) [Entry 87, 3-(3-(4-fluorophenyl)-4,5-dihydro-1H-pyrazol-5-yl)phenol], the results for the EC50 at ERRα and at ERRγ were 1 to 5 µM and over 5 µM, respectively.
Turning to `Fc1cccc(C2=NNC(c3ccc4ccccc4c3)C2)c1` (centres unmarked) [Entry 88, 3-(3-fluorophenyl)-5-(naphthalen-2-yl)-4,5-dihydro-1H-pyrazole], the “EC50 (ERRα)” value on ERRα is “i.a”. This molecule yielded an EC50 on ERRγ of 1 to 5 µM.
As for `Oc1ccc(C2=NNC(c3ccc(Br)cc3)C2)cc1` (centres unmarked) [Entry 89, 4-(5-(4-bromophenyl)-4,5-dihydro-1H-pyrazol-3-yl)phenol], the EC50 at ERRα and on ERRγ was over 5 µM each time.
For the molecule `Oc1cccc(C2CC(c3ccccc3F)=NN2)c1` (centres unmarked) [Entry 90, 3-(3-(2-fluorophenyl)-4,5-dihydro-1H-pyrazol-5-yl)phenol], the EC50 on ERRα and at ERRγ was 1 to 5 µM each time.
Consider `Fc1ccc(C2=NNC(c3ccc4ccccc4c3)C2)cc1` (centres unmarked) [Entry 91, 3-(4-fluorophenyl)-5-(naphthalen-2-yl)-4,5-dihydro-1H-pyrazole], for which the “EC50 (ERRα)” value on ERRα is given as “i.a”. At ERRγ, the “EC50 (ERRγ)” value was “i.a”.
As for `Oc1ccccc1C1=NNC(c2ncc[nH]2)C1` (centres unmarked) [Entry 92, 2-(5-(1H-imidazol-2-yl)-4,5-dihydro-1H-pyrazol-3-yl)phenol], the values for the EC50 at ERRα and at ERRγ were over 5 µM and 1 to 5 µM, respectively.
Take `Oc1ccc2cc(C3CC(c4ccc(Br)cc4)=NN3)ccc2c1` (centres unmarked) [Entry 93, 6-(3-(4-bromophenyl)-4,5-dihydro-1H-pyrazol-5-yl)naphthalen-2-ol]: the “EC50 (ERRα)” value on ERRα is “i.a”. In addition, on ERRγ, the “EC50 (ERRγ)” value is “i.a”.
With `Oc1cccc(C2=NNC(c3ccc4cc(O)ccc4c3)C2)c1` (centres unmarked) [Entry 94, 6-(3-(3-hydroxyphenyl)-4,5-dihydro-1H-pyrazol-5-yl)naphthalen-2-ol], the EC50 on ERRα fell in the range of 1 to 5 µM. In addition, the “EC50 (ERRγ)” value on ERRγ is “i.a”.
Consider `Oc1ccccc1C1=NNC(c2ccc(Br)cc2)C1` (centres unmarked) [Entry 95, 2-(5-(4-bromophenyl)-4,5-dihydro-1H-pyrazol-3-yl)phenol], for which the 50% effective concentration (EC50) at ERRα is under 1 µM; at ERRγ, 1 to 5 µM.
For `Oc1cccc(C2=NNC(c3ccccc3O)C2)c1` (centres unmarked) [Entry 96, 2-(3-(3-hydroxyphenyl)-4,5-dihydro-1H-pyrazol-5-yl)phenol], the values for the EC50 at ERRα and at ERRγ were 1 to 5 µM and over 5 µM, respectively.
On the same counts, the results for `Oc1cccc(C2CC(c3cccc(Br)c3)=NN2)c1` (centres unmarked) [Entry 97, 3-(3-(3-bromophenyl)-4,5-dihydro-1H-pyrazol-5-yl)phenol] are 1 to 5 µM and 1 to 5 µM.
Turning to `Oc1ccc2cc(C3CC(c4ccc(Cl)cc4)=NN3)ccc2c1` (centres unmarked) [Entry 98, 6-(3-(4-chlorophenyl)-4,5-dihydro-1H-pyrazol-5-yl)naphthalen-2-ol], the “EC50 (ERRα)” value on ERRα is “i.a”. The “EC50 (ERRγ)” value at ERRγ is listed as “i.a”.
On to `Oc1cccc(C2=NNC(c3ccc4ccccc4c3)C2)c1` (centres unmarked) [Entry 99, 3-(5-(naphthalen-2-yl)-4,5-dihydro-1H-pyrazol-3-yl)phenol], for which the EC50 at ERRα and on ERRγ was 1 to 5 µM in each case.
Turning to `Oc1ccc(C2CC(c3cccc(O)c3)=NN2)cc1` (centres unmarked) [Entry 100, 3-(5-(4-hydroxyphenyl)-4,5-dihydro-1H-pyrazol-3-yl)phenol], the EC50 at ERRα and on ERRγ was 1 to 5 µM each time.
On to `Clc1ccccc1C1=NNC(c2ccc3ccccc3c2)C1` (centres unmarked) [Entry 101, 3-(2-chlorophenyl)-5-(naphthalen-2-yl)-4,5-dihydro-1H-pyrazole], for which the EC50 at ERRα and at ERRγ was under 1 µM throughout.
Turning to `Oc1cccc(C2=NNC(c3cnc[nH]3)C2)c1` (centres unmarked) [Entry 102, 3-(5-(1H-imidazol-5-yl)-4,5-dihydro-1H-pyrazol-3-yl)phenol], the EC50 on ERRα and at ERRγ was over 5 µM in each case.
With `Oc1ccccc1C1CC(c2ccccc2C(F)(F)F)=NN1` (centres unmarked) [Entry 103, 2-(3-(2-(trifluoromethyl)phenyl)-4,5-dihydro-1H-pyrazol-5-yl)phenol], the “EC50 (ERRα)” value at ERRα is reported as “i.a”. At ERRγ, the “EC50 (ERRγ)” value is reported as “i.a”.
Turning to `Clc1ccc(C2=NNC(c3ccc4ccccc4c3)C2)cc1` (centres unmarked) [Entry 104, 3-(4-chlorophenyl)-5-(naphthalen-2-yl)-4,5-dihydro-1H-pyrazole], the “EC50 (ERRα)” value at ERRα is reported as “i.a”. For the same molecule, on ERRγ, the “EC50 (ERRγ)” value is given as “i.a”.
As for `Cc1nc[nH]c1C1CC(c2ccc(Br)cc2)=NN1` (centres unmarked) [Entry 105, 3-(4-bromophenyl)-5-(4-methyl-1H-imidazol-5-yl)-4,5-dihydro-1H-pyrazole], the EC50 at ERRα and on ERRγ was over 5 µM in each case.
`Fc1ccccc1C1=NNC(c2ccc3ccccc3c2)C1` (centres unmarked) [Entry 106, 3-(2-fluorophenyl)-5-(naphthalen-2-yl)-4,5-dihydro-1H-pyrazole]: the EC50 at ERRα and on ERRγ was under 1 µM each time.
Regarding `Oc1ccc2cc(C3CC(c4ccccc4F)=NN3)ccc2c1` (centres unmarked) [Entry 107, 6-(3-(2-fluorophenyl)-4,5-dihydro-1H-pyrazol-5-yl)naphthalen-2-ol], the EC50 on ERRα and at ERRγ was 1 to 5 µM throughout.
In the case of `Oc1cccc(C2=NNC(c3ccc(Br)cc3)C2)c1` (centres unmarked) [Entry 108, 3-(5-(4-bromophenyl)-4,5-dihydro-1H-pyrazol-3-yl)phenol], the EC50 on ERRα and on ERRγ was 1 to 5 µM throughout.
`Oc1ccccc1C1=NNC(c2c[nH]cn2)C1` (centres unmarked) [Entry 109, 2-(5-(1H-imidazol-4-yl)-4,5-dihydro-1H-pyrazol-3-yl)phenol]: on ERRα, the “EC50 (ERRα)” value was “i.a”. Further, the “EC50 (ERRγ)” value at ERRγ was “i.a”.
For `Fc1ccccc1C1=NNC(c2ccc(Cl)c(Cl)c2)C1` (centres unmarked) [Entry 110, 5-(3,4-dichlorophenyl)-3-(2-fluorophenyl)-4,5-dihydro-1H-pyrazole], the “EC50 (ERRα)” value at ERRα is on record as “i.a”. On ERRγ, the “EC50 (ERRγ)” value is listed as “i.a”.
As to `Clc1ccc(C2CC(c3ccccc3Br)=NN2)cc1Cl` (centres unmarked) [Entry 111, 3-(2-bromophenyl)-5-(3,4-dichlorophenyl)-4,5-dihydro-1H-pyrazole], on ERRα, the “EC50 (ERRα)” value was “i.a”. Further, at ERRγ, the “EC50 (ERRγ)” value is reported as “i.a”.
